Source: patent US10336691B2, “Pesticidally active oxime and hydrazone derivatives” (Syngenta Participations AG, priority 2015, dated 2019)

Assays:
Format in all cases: in vivo
[1] = system: Plutella xylostella; assay: Plutella xylostella (diamond back moth) artificial diet test, L2 larvae; conditions: 120 h, application rate of 200 ppm, 5 days after infestation, in comparison to untreated samples, read-out: effect in at least one of the two categories (mortality or growth inhibition)
Procedure: Plutella xylostella (Diamond Back Moth)
(§1) 24-well microtiter plates with artificial diet were treated with aqueous test solutions prepared from 10,000 ppm DMSO stock solutions by pipetting. After drying, the plates were infested with L2 larvae (10 to 15 per well). The samples were assessed for mortality and growth inhibition in comparison to untreated samples 5 days after infestation.

[2] = system: Diabrotica balteata; assay: Diabrotica balteata (corn root worm) maize sprout spray test, L2 larvae; conditions: 96 h, read-out: effect in at least one of the two categories (mortality or growth inhibition); for percent effect (mortality or growth inhibition) at 200 ppm: application rate of 200 ppm, 4 days after infestation, in comparison to untreated samples
Procedure: Diabrotica balteata (Corn Root Worm)
as §1, with “Maize sprouts, placed on an agar layer in 24-well” for “24-well”, “plates” for “plates with artificial diet”, “spraying.” for “pipetting.”, “(6” for “(10”, “10” for “15”, “4” for “5”

[3] = system: Spodoptera littoralis; assay: Spodoptera littoralis (Egyptian cotton leaf worm) cotton leaf disc spray test, L1 larvae; conditions: foliar, 72 h, application rate of 200 ppm, 3 days after infestation, in comparison to untreated samples, read-out: control (at least one of mortality, anti-feedant effect, and growth inhibition)
Procedure: Spodoptera littoralis (Egyptian Cotton Leaf Worm)
Cotton leaf discs were placed on agar in 24-well microtiter plates and sprayed with aqueous test solutions prepared from 10,000 ppm DMSO stock solutions. After drying, the leaf discs were infested with five L1 larvae. The samples were assessed for mortality, anti-feedant effect, and growth inhibition in comparison to untreated samples 3 days after infestation. Control of Spodoptera littoralis by a test sample is when at least one of mortality, anti-feedant effect, and growth inhibition is higher than the untreated sample.

Row | Compound | percent effect (mortality or growth inhibition) at 200 ppm [1] [%] | percent effect (mortality or growth inhibition) at 200 ppm [2] [%] | mortality at 200 ppm [3] [%] | percent control (mortality or growth inhibition) at 200 ppm [2] [%]
1 | CC/C(=N\Nc1ccc(/C=N/NC(=O)Nc2ccccc2C(C)C)cc1)c1ccc(C(F)(F)F)cc1 [Compound 25, 1-(2-isopropylphenyl)-3-[(E)-[4-[(2E)-2-[1-[4-(trifluoromethyl)phenyl]propylidene] hydrazino]phenyl]methyleneamino] urea] | ≥ 80 | ≥ 80 | – | –
2 | CC/C(=N\Nc1ccc(/C=N/NC(=O)Nc2c(C)cccc2C)cc1)c1ccc(C(F)(F)F)cc1 [Compound 27, 1-(2,6-dimethylphenyl)-3-[(E)-[4-[(2E)-2-[1-[4-(trifluoromethyl)phenyl]propylidene] hydrazino]phenyl]methyleneamino] urea] | ≥ 80 | ≥ 80 | ≥ 80 | –
3 | C/C(=N\Nc1ccc(/C=N/NC(=S)Nc2c(C)cccc2C)cc1)c1ccc(OC(F)(F)F)cc1 [Compound 3, 1-(2,6-dimethylphenyl)-3-[[4-[2-[1-[4-(trifluoromethoxy)phenyl]ethylidene] hydrazino]phenyl]methyleneamino] thiourea] | ≥ 80 | ≥ 80 | ≥ 80 | –
4 | Cc1cccc(C)c1NC(=S)N/N=C/c1ccc(O/N=C2\CCc3cc(OC(F)(F)F)ccc32)cc1 [Compound 9, 1-(2,6-dimethylphenyl)-3-[[4-[[5-(trifluoromethoxy)indan-1-ylidene]amino]oxyphenyl]methylene-amino]thiourea] | ≥ 80 | ≥ 80 | ≥ 80 | –
5 | C/C(=N\Nc1ccc(/C=N/NC(=S)Nc2ccccc2C(C)C)cc1)c1ccccc1OC(F)(F)F [Compound 23, 1-(2-isopropylphenyl)-3-[(E)-[4-[(2E)-2-[1-[2-(trifluoromethoxy)phenyl]ethylidene] hydrazino]phenyl]methylene-amino]thiourea] | ≥ 80 | – | – | –
6 | C/C(=N\Oc1ccc(/C=N/NC(=S)Nc2c(C)cccc2C)cc1)c1ccc(OC(F)(F)F)cc1 [Compound 10, 1-(2,6-dimethylphenyl)-3-[[4-[1-[4-(trifluoromethoxy)phenyl]ethylidene-amino]oxyphenyl]methylene-amino]thiourea] | ≥ 80 | ≥ 80 | ≥ 80 | –
7 | FC(F)(F)Oc1ccc2c(c1)CC/C2=N\Oc1ccc(/C=N/NC(=S)Nc2ccccc2C(F)(F)F)cc1 [Compound 30, 1-[[4-[[5-(trifluoromethoxy)indan-1-ylidene]amino]oxyphenyl]methylene-amino]-3-[2-(trifluoromethyl)phenyl]thiourea] | – | ≥ 80 | – | –
8 | C/C(=N\Nc1ccc(/C=N/NC(=S)Nc2ccccc2C(C)C)cc1)c1ccc(C(F)(F)F)cc1 [Compound 20, 1-(2-isopropylphenyl)-3-[(E)-[4-[(2E)-2-[1-[4-(trifluoromethyl)phenyl]ethylidene] hydrazino]phenyl]methyleneamino] thiourea] | ≥ 80 | ≥ 80 | ≥ 80 | –
9 | C/C(=N\Oc1ccc(/C=N/NC(=O)Nc2ccccc2C(C)C)cc1)c1ccc(OC(F)(F)F)cc1 [Compound 6, 1-(2-isopropylphenyl)-3-[[4-[1-[4-(trifluoromethoxy)phenyl]ethylidene-amino]oxyphenyl]methylene-amino]urea] | ≥ 80 | ≥ 80 | – | –
10 | C/C(=N\Oc1ccc(/C=N/NC(=S)Nc2ccccc2C(F)(F)F)cc1)c1ccc(OC(F)(F)F)cc1 [Compound 31, 1-[[4-[1-[4-(trifluoromethoxy)phenyl]ethylidene-amino]oxyphenyl]methylene-amino]-3-[2-(trifluoromethyl)phenyl]thiourea] | – | ≥ 80 | – | –
11 | C/C(=N\Nc1ccc(/C=N/OC(=O)Nc2c(C)cccc2C)cc1)c1ccc(C(F)(F)F)cc1 [Compound 12, [[4-[2-[1-[4-(trifluoromethyl)phenyl]ethylidene] hydrazino]phenyl]methyleneamino] N-(2,6-dimethylphenyl)carbamate] | – | – | – | ≥ 80
12 | C/C(=N\Nc1ccc(/C=N/NC(=O)Nc2ccccc2C(C)C)cc1)c1cccc(OC(F)(F)F)c1 [Compound 13, 1-(2-isopropylphenyl)-3-[[4-[2-[1-[3-(trifluoromethoxy)phenyl]ethylidene] hydrazino]phenyl]methyleneamino] urea] | – | ≥ 80 | – | –
13 | C/C(=N\Nc1ccc(/C=N/NC(=O)Nc2c(C)cccc2C)cc1)c1cccc(OC(F)(F)F)c1 [Compound 15, 1-(2,6-dimethylphenyl)-3-[[4-[2-[1-[3-(trifluoromethoxy)phenyl]ethylidene]hydrazino]phenyl]methylene-amino]urea] | ≥ 80 | – | – | –
14 | C/C(=N\Nc1ccc(/C=N/NC(=S)Nc2c(C)cccc2C)cc1)c1ccccc1OC(F)(F)F [Compound 18, 1-(2,6-dimethylphenyl)-3-[[4-[2-[1-[2-(trifluoromethoxy)phenyl]ethylidene] hydrazino]phenyl]methylene-amino]thiourea] | ≥ 80 | – | – | –
15 | C/C(=N\Nc1ccc(/C=N/NC(=O)Nc2c(C)cccc2C)cc1)c1ccc(OC(F)F)cc1 [Compound 29, 1-[[4-[2-[1-[4-(difluoromethoxy)phenyl]ethylidene] hydrazino]phenyl]methyleneamino]-3-(2,6-dimethylphenyl)urea] | ≥ 80 | – | ≥ 80 | –
16 | C/C(=N\Nc1ccc(/C=N/NC(=S)Nc2c(C)cccc2C)cc1)c1cccc(OC(F)(F)F)c1 [Compound 16, 1-(2,6-dimethylphenyl)-3-[[4-[2-[1-[3-(trifluoromethoxy)phenyl]ethylidene] hydrazino]phenyl]methylene-amino]thiourea] | ≥ 80 | ≥ 80 | – | –
17 | C/C(=N\Nc1ccc(/C=N/NC(=S)Nc2ccccc2C(C)C)cc1)c1cccc(OC(F)(F)F)c1 [Compound 14, 1-(2-isopropylphenyl)-3-[[4-[2-[1-[3-(trifluoromethoxy)phenyl]ethylidene] hydrazino]phenyl]methyleneamino] thiourea] | ≥ 80 | ≥ 80 | – | –
18 | C/C(=N\Nc1ccc(/C=N/NC(=O)Nc2ccccc2C(C)C)cc1)c1ccc(C(F)(F)F)cc1 [Compound 19, 1-(2-isopropylphenyl)-3-[(E)-[4-[(2E)-2-[1-[4-(trifluoromethyl)phenyl]ethylidene] hydrazino]phenyl]methyleneamino] urea] | ≥ 80 | ≥ 80 | – | –
19 | C/C(=N\Oc1ccc(/C=N/NC(=S)Nc2ccccc2C(C)C)cc1)c1ccc(OC(F)(F)F)cc1 [Compound 8, 1-(2-isopropylphenyl)-3-[[4-[1-[4-(trifluoromethoxy)phenyl]ethylidene-amino]oxyphenyl]methylene-amino]thiourea] | ≥ 80 | ≥ 80 | – | –
